This assay deals with mpkCCDc14 cell line. The assay can be described thus: Short-circuit current electrophysiology in renal principal cells. Type of assay: cell-based, mouse. The following applies: FIG. 4. From the text:
Described herein is the method of short-circuit electrophysiology used for detailed examination of the nature of the ion channels stimulated in response to cyst fluid. These studies utilized mouse principal cells of the kidney cortical collecting duct, clone 4 (mpkCCDc14) cell line. These cells have the characteristics of the principal cell type found in the distal portion of the renal nephron. Principal cells often line renal cysts. […] This finding is in agreement with Granthan et al. However, the activation of other ion channels by the fluid was also discovered. When examined in real time, the nature of channel activity by the cyst was quite different than the activity seen in response to forskolin, as shown in FIG. 1. These studies indicate that there are components found in cyst fluid that stimulate multiple ion transporters, which together cause electrolyte and fluid secretion into the cyst lumen.
Electrophysiological testing of effects NASPA on short circuit current. Cell preparations were pre-incubated with NASPA (10 μM) or diluent (DMSO) for 15 minutes prior to administration of 10% fetal bovine serum (FBS). FBS was administered serosally at time zero.
Electrophysiological testing of effects VPC 32183 on LPA induced increase in short circuit current. […]

Each structure is given as a SMILES string.

With `CCCCCCCCCCCCCCCC(=O)N[C@@H](COP(=O)(O)O)C(=O)O` [NASPA], for the setting “NASPA 10 μM pre-incubated 15 minutes, 10% FBS added serosally at time zero, versus diluent (DMSO)”, the “effect on response to LPA added as part of fetal bovine serum (short circuit current)” value is recorded as “antagonized the LPA added as part of the fetal bovine serum”. Moreover, the “effect on short circuit current when first added” value (NASPA 10 μM, 15 minutes pre-incubation before 10% FBS) is “appeared to act like an agonist when first added”.

The record behind these values is patent publication US20110044973A1, “TREATMENT OF CYSTIC DISEASE WITH LYSOPHOSPHATIDIC ACID ANTAGONISTS” (priority 2009, published 2011).
